Assay [1] deals with T1, GST tagged LXRbeta LBD (ligand binding domain) (Homo sapiens, UniProt P55055).
T1 construct: purchased Invitrogen pv4658.pps
T1 sequence (P55055 222-460 limits assumed): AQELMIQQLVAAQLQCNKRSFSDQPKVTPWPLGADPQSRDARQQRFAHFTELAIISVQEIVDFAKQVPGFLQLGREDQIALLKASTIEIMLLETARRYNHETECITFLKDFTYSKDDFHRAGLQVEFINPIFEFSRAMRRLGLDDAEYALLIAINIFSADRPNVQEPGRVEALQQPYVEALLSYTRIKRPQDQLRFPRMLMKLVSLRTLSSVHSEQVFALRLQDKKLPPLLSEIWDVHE
The assay can be described thus: LanthaScreen TR-FRET Liver X Receptor Coactivator Assay, LXR beta-LBD. To be noted: relative to reference T0901317; for EC50: Inflection Point (potency), co-activator recruitment, read-out: LXR beta IP; for Emax: read-out: LXR beta act @ max dose (%). The format is biochemical. A digest of the protocol: (§1)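 GST-tagged human LXRα or LXRβ LBD was mixed with test compound, then fluorescein-labelled coactivator peptide and terbium anti-GST antibody added. After room-temperature incubation, TR-FRET was read. Inflection point and Emax expressed relative to reference dual agonist T0901317.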

The target of assay [2] is T2, GST tagged LXRalpha LBD (ligand binding domain) (Homo sapiens, UniProt Q13133).
T2 construct: purchased Invitrogen pv4655
T2 sequence (Q13133 209-447 limits assumed): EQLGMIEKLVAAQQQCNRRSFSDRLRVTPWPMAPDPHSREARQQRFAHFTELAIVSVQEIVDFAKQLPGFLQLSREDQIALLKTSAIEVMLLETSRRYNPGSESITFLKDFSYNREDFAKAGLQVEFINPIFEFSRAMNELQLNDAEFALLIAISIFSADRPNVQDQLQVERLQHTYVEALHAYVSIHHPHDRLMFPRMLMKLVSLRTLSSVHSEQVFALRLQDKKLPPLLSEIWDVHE
Nature of the assay: LanthaScreen TR-FRET Liver X Receptor Coactivator Assay, LXR alpha-LBD. To be noted: relative to reference T0901317; for EC50: read-out: LXR alpha IP; for Emax: read-out: LXR alpha act @ max dose (%). The format is biochemical. The gist of the method: as §1
(In general: Time-resolved FRET reads energy transfer from a long-lived donor to a nearby acceptor.)

Setting [3] is: activity at max dose (efficacy).
The mark [4] stands for this setting: Inflection Point (potency), co-activator recruitment.

SMILES strings stand for the structures.

For the compound `O=C(c1ccc(N2CCC(C3CCN(C(=O)[C@](O)(c4ccccc4)C(F)(F)F)CC3)CC2)cc1Cl)N1CCC[C@H]1CO` [Example E-63, (2R)-3-[1′-(3-chloro-4-{[(2S)-2-(hydroxymethyl)pyrrolidin-1-yl]carbonyl}phenyl)-4,4′-bipiperidin-1-yl]-1,1,1-trifluoro-3-oxo-2-phenylpropan-2-ol], the EC50 in assay [1] worked out at 21 nM; in assay [2] (setting [4]), 359 nM. Besides, the Emax turned out to be 86% in assay [1] (setting [3]) and 51% in assay [2] (setting [3]).
As to `CN(CCO)C(=O)c1ccc(N2CCC(C3CCN(C(=O)[C@](O)(c4ccccc4)C(F)(F)C(F)(F)F)CC3)CC2)cc1Cl` [Example E-64, 2-chloro-N-(2-hydroxyethyl)-N-methyl-4-{1′-[(2R)-3,3,4,4,4-pentafluoro-2-hydroxy-2-phenylbutanoyl]-4,4′-bipiperidin-1-yl}benzamide], the EC50 in assay [1] was determined as 26 nM; in assay [2] (setting [4]) it was 913 nM. For the same compound, the values for the Emax in assay [1] (setting [3]) and in assay [2] (setting [3]) were 146% and 54%, respectively.
Take `CN(C)C(=O)c1ccc(N2CCC(C3CCN(S(=O)(=O)c4c(Cl)cccc4C(F)(F)F)CC3)CC2)cc1Cl` [Example A-105, 2-chloro-4-(1′-{[2-chloro-6-(trifluoromethyl)phenyl]sulfonyl}-4,4′-bipiperidin-1-yl)-N,N-dimethylbenzamide]: the EC50 came out at 55 nM in assay [1] and 1090 nM in assay [2] (setting [4]). In addition, the Emax was determined as 118% in assay [1] (setting [3]) and 44% in assay [2] (setting [3]).
For the compound `CN(C)C(=O)c1ccc(N2CCC(C3CCN(C(=O)C(O)(C(F)(F)F)C4(C)CC4)CC3)CC2)cc1Cl` (stereo not shown) [Example A-30, 2-chloro-N,N-dimethyl-4-{1′-[3,3,3-trifluoro-2-hydroxy-2-(1-methylcyclopropyl)propanoyl]-4,4′-bipiperidin-1-yl}benzamide], the EC50 was found to be 73 nM in assay [1] and 2120 nM in assay [2] (setting [4]). The Emax in assay [1] (setting [3]) is 119%; in assay [2] (setting [3]), 62%.
For `CN(C)C(=O)c1ccc(N2CCC(C3CCN(C(=O)C4(c5cccc(F)c5)CCC4)CC3)CC2)cc1Cl` [Example A-17, 2-chloro-4-(1′-{[1-(3-fluorophenyl)cyclobutyl]carbonyl}-4,4′-bipiperidin-1-yl)-N,N-dimethylbenzamide] the same measures were 204 nM, 2260 nM, 100% and 14%.
For `CN(C)C(=O)c1ccc(N2CCC(C3CCN(C(=O)C4(C(F)(F)F)CCCC4)CC3)CC2)cc1Cl` [Example A-28, 2-chloro-N,N-dimethyl-4-(1′-{[1-(trifluoromethyl)cyclopentyl]carbonyl}-4,4′-bipiperidin-1-yl)benzamide] the same measures were 173 nM, 2470 nM, 123% and 73%.
In the case of `CCCC(O)(C(=O)N1CCC(C2CCN(c3ccc(C(=O)N(C)C)c(Cl)c3)CC2)CC1)C(F)(F)F` (stereo not shown) [Example A-84, 2-chloro-4-{1′-[2-hydroxy-2-(trifluoromethyl)pentanoyl]-4,4′-bipiperidin-1-yl}-N,N-dimethylbenzamide], the EC50 was found to be 173 nM in assay [1] and 1370 nM in assay [2] (setting [4]). Moreover, in assay [1] (setting [3]), the “LXR beta act @ max dose (%)” value was determined as 116%. For the same compound, the “LXR alpha act @ max dose (%)” value in assay [2] (setting [3]) is reported as 63%.
For the compound `CN(C)C(=O)c1ccc(N2CCC(C3CCN(C(=O)C4(C(F)(F)F)CCC4)CC3)CC2)cc1Cl` [Example A-29, 2-chloro-N,N-dimethyl-4-(1′-{[1-(trifluoromethyl)cyclobutyl]carbonyl}-4,4′-bipiperidin-1-yl)benzamide], the EC50 came out at 526 nM in assay [1] and 3580 nM in assay [2] (setting [4]). In addition, the Emax in assay [1] (setting [3]) was determined as 106%; in assay [2] (setting [3]), 46%.
`C=CCC(O)(C(=O)N1CCC(C2CCN(c3ccc(C(=O)N(C)C)c(Cl)c3)CC2)CC1)C(F)(F)F` (stereo not shown) [Example A-57, 2-chloro-4-{1′-[2-hydroxy-2-(trifluoromethyl)pent-4-enoyl]-4,4′-bipiperidin-1-yl}-N,N-dimethylbenzamide]: the values for the EC50 in assay [1] and in assay [2] (setting [4]) were 311 nM and 4790 nM, respectively. Further, the Emax in assay [1] (setting [3]) is 112%; in assay [2] (setting [3]), 58%.
Turning to `CC(C)C(O)(C(=O)N1CCC(C2CCN(c3ccc(C(=O)N(C)C)c(Cl)n3)CC2)CC1)C1CC1` (stereo not shown) [Example B-3, 2-chloro-6-[1′-(2-cyclopropyl-2-hydroxy-3-methylbutanoyl)-4,4′-bipiperidin-1-yl]-N,N-dimethylpyridine-3-carboxamide], the EC50 in assay [1] worked out at 325 nM; in assay [2] (setting [4]) it was 1790 nM. Besides, the Emax in assay [1] (setting [3]) turned out to be 143%; in assay [2] (setting [3]), 71%.
`CN(Cc1ccon1)C(=O)c1ccc(N2CCC(C3CCN(C(=O)[C@](O)(c4ccccc4)C(F)(F)F)CC3)CC2)cc1Cl` [Example E-52, 2-chloro-N-(isoxazol-3-ylmethyl)-N-methyl-4-{1′-[(2R)-3,3,3-trifluoro-2-hydroxy-2-phenylpropanoyl]-4,4′-bipiperidin-1-yl}benzamide]: the EC50 in assay [1] amounted to 206 nM; in assay [2] (setting [4]) it was 1420 nM. In addition, the Emax came out at 78% in assay [1] (setting [3]) and 28% in assay [2] (setting [3]).
Taken in the same sequence, the figures for `CN(C)C(=O)c1ccc(N2CCC(C3CCN(C(=O)C45CC(C4)C5)CC3)CC2)cc1Cl` [Example A-15, 4-[1′-(bicyclo[1.1.1]pent-1-ylcarbonyl)-4,4′-bipiperidin-1-yl]-2-chloro-N,N-dimethylbenzamide] were 314 nM, 3130 nM, 93% and 31%.
For `CN(Cc1nccs1)C(=O)c1ccc(N2CCC(C3CCN(C(=O)[C@](O)(c4ccccc4)C(F)(F)F)CC3)CC2)cc1Cl` [Example E-49, 2-chloro-N-methyl-N-(1,3-thiazol-2-ylmethyl)-4-{1′-[(2R)-3,3,3-trifluoro-2-hydroxy-2-phenylpropanoyl]-4,4′-bipiperidin-1-yl}benzamide] the same measures were 184 nM, 1380 nM, 77% and 30%.
Taken in the same sequence, the figures for `Cc1cccc(C2(C(=O)N3CCC(C4CCN(c5ccc(C(=O)N(C)C)c(Cl)c5)CC4)CC3)CCC2)c1` [Example A-19, 2-chloro-N,N-dimethyl-4-(1′-{[1-(3-methylphenyl)cyclobutyl]carbonyl}-4,4′-bipiperidin-1-yl)benzamide] were 124 nM, 1750 nM, 94% and 17%.
On to `CC(C)C(O)(C(=O)N1CCC(C2CCN(c3ccc(C(=O)N4CC(F)(F)C4)c(Cl)c3)CC2)CC1)C(F)(F)F` (stereo not shown) [Example E-3, 2-[(1′-{3-chloro-4-[(3,3-difluoroazetidin-1-yl)carbonyl]phenyl}-4,4′-bipiperidin-1-yl)carbonyl]-1,1,1-trifluoro-3-methylbutan-2-ol], for which the EC50 is 297 nM in assay [1] and 127 nM in assay [2] (setting [4]). Also, the Emax in assay [1] (setting [3]) came to 81%; in assay [2] (setting [3]), 30%.
As for `CN(C)C(=O)c1ccc(N2CCC(C3CCN(C(=O)c4c(F)cccc4Cl)CC3)CC2)cc1Cl` [Example A-24, 2-chloro-4-{1′-[(2-chloro-6-fluorophenyl)carbonyl]-4,4′-bipiperidin-1-yl}-N,N-dimethylbenzamide], the EC50 in assay [1] was found to be 89 nM; in assay [2] (setting [4]) it was 4850 nM. The Emax in assay [1] (setting [3]) is 107%; in assay [2] (setting [3]), 31%.
Regarding `CN(C)C(=O)c1ccc(N2CCC(C3CCN(C(=O)C4(c5ccc(Cl)cc5)CCC4)CC3)CC2)cc1Cl` [Example A-47, 2-chloro-4-(1′-{[1-(4-chlorophenyl)cyclobutyl]carbonyl}-4,4′-bipiperidin-1-yl)-N,N-dimethylbenzamide], the EC50 in assay [1] came to 178 nM. Further, the Emax in assay [1] (setting [3]) was determined as 78%; in assay [2] (setting [3]) it was 4%. Also, in assay [2] (setting [4]), the “LXR alpha IP (nM)” value is listed as “NO IP”.
With `Cc1ccc(F)c(C(=O)N2CCC(C3CCN(c4ccc(C(=O)N(C)C)c(Cl)c4)CC3)CC2)c1F` [Example A-38, 2-chloro-4-{1′-[(2,6-difluoro-3-methylphenyl)carbonyl]-4,4′-bipiperidin-1-yl}-N,N-dimethylbenzamide], the EC50 in assay [1] turned out to be 164 nM; in assay [2] (setting [4]), 3450 nM. Further, the figures for the Emax in assay [1] (setting [3]) and in assay [2] (setting [3]) were 85% and 22%, respectively.
For `COc1cccc(C(O)(C(=O)N2CCC(C3CCN(c4ccc(C(=O)N(C)C)c(Cl)c4)CC3)CC2)C(F)(F)C(F)(F)F)c1` (stereo not shown) [Example A-81, 2-chloro-N,N-dimethyl-4-{1′-[3,3,4,4,4-pentafluoro-2-hydroxy-2-(3-methoxyphenyl)butanoyl]-4,4′-bipiperidin-1-yl}benzamide] the same measures were 283 nM, 3670 nM, 104% and 25%.

The values above are taken from patent US20180305332A1, “Bispiperidinyl Derivatives as Liver X Receptor Beta Agonists, Compositions, and Their Use” (Merck Sharp & Dohme Corp., priority 2015, published 2018).
